Results as given in patent US10301630B2, “Methods and compositions for unsilencing imprinted genes” (The University of North Carolina at Chapel Hill, priority 2010, dated 2019).

What was measured:
[1] = system: Ube3a, Ube3a-ATS, Snrpn mRNA; test: Quantitative PCR of Ube3a, Ube3a-ATS and Snrpn in Ube3a m-/p+ neurons; type: cell-based, mouse; details: 300 nM, cultured neurons from Ube3a m−/p+ mice
Procedure: First strand cDNA synthesis was performed on 500 ng-2 μg total RNA using Superscript III reverse transcriptase (Invitrogen) primed with random hexamers. qPCR reactions used SYBR green (Invitrogen) and were run on a Rotorgene 3000 (Corbett Research). Standard curves and Ct-values were generated using Rotorgene analysis software version 6.0. Expression of Ube3a, Ube3a-ATS, Ipw and Snrpn were determined after normalization of each cDNA sample to expression levels of the housekeeping genes Rp122 and Actb.

[2] = system: Ube3a-ATS/Snrpn promoter region; test: Bisulfite sequencing of the Ube3a-ATS/Snrpn promoter region; type: cell-based, mouse; details: 300 nM, 72 h, cortical neurons
Procedure: Bisulfite conversion was performed on 200 ng genomic DNA using the MethylCode kit (Invitrogen). 1 μL of converted DNA was used as template for PCR. A first round of PCR was performed as described in Peery et al. using the W18 (5′-[…]) (SEQ ID NO:5) and W19 (5′-[…]) (SEQ ID NO:6) or W16 (5′-[…]) (SEQ ID NO:7) and W17 (5′-[…]) (SEQ ID NO:8) primer sets^38. A second semi-nested round of PCR was performed using 1 μL of the primary PCR reaction as template. For semi-nested PCR, the W18 primer was used with the nested W19-inside primer (5′-[…]) (SEQ ID NO:9), or the W16 primer was used with the nested W17-inside primer (5′-[…]) (SEQ ID NO:10). Products were separated on an agarose gel and extracted using the Qiaquick gel extraction kit (Qiagen). Purified DNA was ligated into the pGem-T Easy vector (Promega). Individual clones were amplified and sequenced.

paternal Ube3a-YFP mRNA = test: Real-time PCR of Ube3a-YFP transcript in cortical neurons; type: cell-based, mouse; details: 10 μM for 72 h
Description: Total mRNA was isolated by guanidinium thiocyanate-phenol-chloroform extraction using the Trizol reagent (Invitrogen Inc.). Total mRNAs from samples were converted into cDNA and subjected to real-time PCR (RT-PCR) analyses to quantify Ube3a-YFP transcript levels using oliognucleotide primers against Ube3a (Forward sequence: [NT] (SEQ ID NO:1); reverse sequence: [NT] (SEQ ID NO:2)) and total transcript reads were normalized to Oaz1 (Forward sequence: [NT] (SEQ ID NO:3); reverse sequence: [NT] (SEQ ID NO:4)).

Ube3a-YFP protein = test: Western blot of Ube3a-YFP protein in cortical neurons; type: cell-based, mouse; details: 10 μM for 72 h
Procedure: Embryonic day 13.5 to 15.5 mice that encode the paternal Ube3a-YFP transgene or Ube3a^m−/p+ mice (i.e., AS model mice) were identified and primary cortical neuronal cultures were obtained and plated in 6 well plates. […] To assess Ube3a-YFP protein levels, 7.5 ug of total protein lysates from Ube3a-YFP neurons were separated by 8% SDS-polyacrylamide gel electrophoresis, proteins were transferred to nitrocellulose membranes and immunoblotting was performed using a rabbit anti-GFP antibody (Novus) and Alexa Fluor 680 goat anti-rabbit IgG (Invitrogen). Ube3a-YFP protein bands were visualized by a LiCOR system and to control for protein loading, Ube3a-YFP protein levels were normalized to actin level detected in each sample. To assess Ube3a protein level, immunoblotting was performed using rabbit anti-Ube3a antibody (Abeam) and Alexa Fluor 680 goat anti-rabbit IgG (Invitrogen).
E13.5-15.5 primary cortical neurons from Ube3a-YFP, Ube3a-deficient, or wild-type mice were plated in 6-well plates. At DIV7, neurons were treated with drug or 0.1% DMSO for 72 h, and then total protein lysates were obtained by lysis buffer (1% Triton X-100, 5 mM EDTA, 0.15M NaCl, 10 mM Tris-HCl, pH 7.5, phosphatase inhibitor cocktails 1, protease inhibitor cocktail). […] To control for protein loading, UBE3A-YFP or UBE3A protein levels were normalized to actin levels detected in each sample.

cultured neurons = test: Affymetrix GeneChip expression in cultured neurons; type: cell-based

Compound	Ube3a mRNA expression [1]	Ube3a-ATS and Snrpn mRNA expression [1]	methylation at the imprinting center [2]	paternal Ube3a-YFP mRNA level (RT-PCR) (paternal Ube3a-YFP mRNA)	paternal Ube3a-YFP protein level (immunoblot) (Ube3a-YFP protein)	apoptotic pathways by microarray (cultured neurons)
CC[C@@]1(O)C(=O)OCc2c1cc1n(c2=O)Cc2cc3c(CN(C)C)c(O)ccc3nc2-1 [Topotecan]	upregulated expression of Ube3a	downregulating expression of Ube3a-ATS and Snrpn	did not alter methylation at the imprinting center			
CCc1c2c(nc3ccc(OC(=O)N4CCC(N5CCCCC5)CC4)cc13)-c1cc3c(c(=O)n1C2)COC(=O)[C@]3(O)CC [Irinotecan]				significantly increased the level of paternal Ube3a-YFP mRNA	significantly increases paternal Ube3a-YFP protein levels	no evidence for drug-induced increases in apoptotic pathways
